We go through one compound from patent US9518041B2, “(+)-5-(3,4-difluorophenyl)-5-[(3-methyl-2-oxopyridin-1(2H)-yl)methyl]imidazolidine-2,4-dione and drug containing same” (KAKEN PHARMACEUTICAL CO., LTD., priority 2013, dated 2016).

As usually defined, the IC50 is the midpoint of a concentration-inhibition curve.

Molecules are shown by their SMILES.

The test addresses T1, human MMP-3 (Homo sapiens, UniProt P08254).
T1 construct: purchased Calbiochem 444217
The test can be described thus: MMP-3 inhibition test. The test is classed as biochemical. The note with it: read-out: Inhibitory activity (IC50, nM) MMP-3. As for the experimental part:
MMP inhibition tests can be carried out, for example, using a fluorescent synthetic substrate based on the methods described in Bickett et al. (D. Mark Bickett et al., Anal. Biochem., 1993, 212, 58-64) and Nagase et al. (H. Nagase et al., J. Biol. Chem., 1994, 269, 20952-20957). The method for each MMP inhibition test is shown below.
90 μL (1.5 ng) of human MMP-3 (Calbiochem #444217) prepared with an assay buffer A was added to 90 μL of a 20 μM fluorescent substrate NFF-3 (MOCAc((7-methoxycoumarin-4-yl)acetyl)-Arg-Pro-Lys-Pro-Val-Glu-Nva-Trp-Arg-Lys(Dnp)-NH2, Peptide Institute Inc., #3168-v) (SEQ ID NO: 4) prepared with an assay buffer B, and reacted at 37° C. for 4 hours. Enzyme activity was then determined by measuring with a fluorescence intensity meter (Labsystems, Fluoroskan Ascent) at an excitation wavelength of 320 nm and a measurement wavelength of 405 nm.
From the enzyme activity in the presence or the absence of the test substance, the inhibition rate was determined, and the 50% inhibitiory concentration (IC50) of the test substance was calculated.

T1 sequence (P08254 100-272 limits assumed): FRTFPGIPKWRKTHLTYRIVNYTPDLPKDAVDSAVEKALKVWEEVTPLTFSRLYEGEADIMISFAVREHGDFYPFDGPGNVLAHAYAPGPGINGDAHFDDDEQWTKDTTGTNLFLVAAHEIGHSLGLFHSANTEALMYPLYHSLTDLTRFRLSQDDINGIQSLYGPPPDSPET

For the compound `Cc1cccn(CC2(c3ccc(F)c(F)c3)NC(=O)NC2=O)c1=O` (single isomer, unassigned; (+)) [(+)-5-(3,4-difluorophenyl)-5-[(3-methyl-2-oxopyridin-1(2H)-yl)methyl]imidazolidine-2,4-dione], the half-inhibitory concentration (IC50) was > 10000 nM.
